Laboratory results from patent US7846891B2, “Self-assembling peptides for regeneration and repair of neural tissue” (Massachusetts Institute of Technology, priority 2003, dated 2010).
“Also recorded” adds a separate entry of the source.

What was measured:
[1] = system: brachium of the superior colliculus (brain wound); test: Visually elicited orienting (head turning) test after transection of the brachium of the superior colliculus in adult hamsters; assay type: in vivo, Syrian hamster; settings: BSC transected at 2 months of age, 10 ul of 1% SAP at surgery, testing from day 44-46, listed as SAP
Protocol: Thus functional recovery of severed axons can be assessed by evaluating visually elicited head turning at various times after infliction of a lesion that severs the brachium, such as those described in Example 1.
To determine the extent of return of vision the animals are tested for visually elicited orienting responses. The identity of the animal is unknown to the investigator during testing periods. Before behavioral testing, the animals are habituated to the testing environment. Videotaping of the response is accomplished by the use of an overhead Sony digital video (DV) recorder. Some of the trials are simultaneously taped from the side with another Sony DV recorder. Later the video is analyzed frame-by-frame on a 21-inch monitor. All of the cameras are time synchronized. The first type of analysis is to determine if the trial is valid or invalid. Once a trial is judged as valid it is analyzed frame by frame, which enables us to plot the position of the stimulus with respect to the initial head location. The angle of the head at the beginning of the turning movement is set to zero. […]
The y axis represents the number of times the animal turned toward the stimulus during testing, expressed as a percentage of the number of times the stimulus was presented on the side that had received the lesion and SAP treatment. […]

[2] = system: brachium of the superior colliculus (brain wound); test: Histology and CT-B axon tracing after transection of the brachium of the superior colliculus in adult hamsters; assay type: in vivo, Syrian hamster; settings: BSC transection; for axon growth through the lesion site (CT-B tracing) / tissue reconnection / repair at the lesion site (histology): 10 ul of 1% SAP, section 2 months after injection
Protocol: (§1) Axon tracing method. Four days before the animals were sacrificed they were anesthetized with intraperitoneal injection of Valium (50 mg/kg) and Nembutal (10 mg/kg). […]. This was accomplished with the aid of glass micropipette (tip diameter ˜10 μm) attached to a General Valve Pico Spritzer as previously described. The subjects were then returned to their cages, under a heat lamp, and monitored until they recovered.
(§2) Histology. The animals were sacrificed with an overdose of anesthesia 4 days after the intraocular injection of CT-B and were then perfused transcardially with PBS buffer (pH 7.4) followed by 2% paraformaldehyde in 0.1M phosphate buffer (pH 7.4). The brains and eyes were removed and postfixed at 4° C. until they sank. The tissue was cut on a cryostat in 30 micron coronal sections. These sections were mounted directly on gelatin-coated slides. The mounted sections were first air dried, then washed with PBS (pH 7.4) three times at 10 min intervals, and then preblocked in PBS (pH 7.4) containing 2% Triton X-100, 2% normal rabbit serum, and 2.5% bovine serum albumin for 30 min at room temperature. The slides were then incubated with goat anti-cholaragenoid (List Biological Lab, Inc.) (1:8000 dilution)+2% Triton X-100, 2% normal rabbit serum, and 2.5% bovine serum albumin for 48 hours at room temperature. Slides were then washed in PBS (pH 7.4) for three rounds of 10 min each. Sections were incubated with fluorescent donkey anti-IgG antibody Alexa-488 (secondary antibody from Molecular Probes, Inc.) (1:200 dilution) for 1 her 30 min at room temperature in a light protected chamber. Slides were then washed in PBS (pH 7.4) 4 to 5 times at 5 min intervals. The slides were then cover-slipped with Dabco. The slides were visualized through a fluorescent microscope and pictures were taken with a Kodak DCS 620 digital camera.
At the time of surgery, animals were treated by injection of 10 ul of 1% SAP RAD16-I into the brain wound. Animals were allowed to recover from surgery and maintained under standard laboratory conditions.
. Axon tracing and histology were performed as described above to allow visualization of the lesion site and assessment of axon regrowth. FIG. 10 is a parasagittal section of the dorsal midbrain of a hamster. Rostral is left and caudual is right. The section is from an 8 month old hamster and was taken 2 months following infliction of the lesion. The bright yellow in the middle of the picture that extends from the lower left to the upper right is in the middle of the lesion site. Retinal projections show as gray. Note the axons extending through the center of the cut. […] In addition, the tissue has reconnected at the lesion site in a similar manner to that observed in the younger animals.

[3] = system: optic tract within the superior colliculus (brain wound); test: Optic tract transection (knife wound in superior colliculus) in P2 hamster pups; histology and CT-B axon tracing; assay type: in vivo, Syrian hamster
Protocol: Animals and surgery. Syrian hamster pups at two days of age (P2) were anesthetized with whole-body cooling. […] At surgery, 10 animals were treated by injection into the brain wound of 10 microliters of 1% SAP RADA16-I (n-RADARADARADARADA-c; SEQ ID NO: 1) prepared by dissolving peptide in sterile water. The overlying scalp was then closed with tissue glue (cyanoacrylic). The pups were returned to the cage, placed under a heat lamp, and monitored until they recovered. After recovery the hamster pups were returned to their mother. Control animals with the same lesion included 3 with isotonic saline injection (10 microliters), and 27 earlier cases with knife cuts and no injection.
as §1
as §2, with “camera. […]” for “camera.”

[4] = Self-assembly of SAP on addition to CSF in vitro; assay type: physicochemical; settings: data not shown

Question: What does the source list for n-RADARADARADARADA-c [RADA16-I]?
Answer: behavioral recovery (response to visual stimulus) [1]: significant behavioral recovery; also recorded: return of functional vision in six animals; re-innervation of the SC by the severed retinofugal axons ([2]; 10 ul of 1% SAP at surgery): partial re-innervation of the SC; axon growth through the lesion site (CT-B tracing) ([2]; listed as RAD16-I): axons have extended their processes to the superior colliculus; tissue reconnection / repair at the lesion site (histology) ([2]; listed as RAD16-I): All of the tissue has repaired itself; axon growth through the lesion site (CT-B tracing) ([2]; listed as SAP): axons growing through the site where the cut transected the brachium of the superior colliculus; tissue reconnection / repair at the lesion site (histology) ([2]; listed as SAP): neural tissue reconnected across the site of the lesion; axon regrowth across the lesion (cholera-toxin labeling) ([3]; 1 month hamster, lesion at P2 injected with 10 microliters of 1% SAP): axons have extended from a location proximal to the lesion to a distal location; scar at lesion site (bright-field image) ([3]; 2 months after lesion and injection of SAP): minimal nature of the scar; re-innervation of the caudal SC by the severed retinofugal axons ([3]; lesion at P2, 10 ul of 1% SAP): partial re-innervation of the caudal SC; tissue reconnection across the lesion (histology) ([3]; lesion at P2, 10 ul of 1% SAP injected into brain wound, survival 1, 3, 6, 30 or 60 days, vs saline and no-injection controls (χ^2=34.8, df (1), p<<0.001)): the tissue appears to have reconnected across the lesion at all survival times; self-assembly in CSF [4]: resulted in self-assembly to form a peptide scaffold
